The assay concerns the target T1, PDE4B (Homo sapiens, UniProt Q07343).
T1 construct: active site fragment comprising the amino acids 152-484
Description: PDE4B Scintillation Proximity (SPA) Assay. In kind it is biochemical. The note with it: PDE4B active site fragment amino acids 152-484; [3H]cAMP; 30° C., one hour; read-out: Experimentally determined IC50-value for PDE4B inhibition. The text has this: The IC50-values of the compounds of the invention (Examples 1.1 to 1.47) with respect to their PDE4B-inhibiting ability have been determined with a Scintillation Proximity (SPA) Assay (GE Healthcare, No. TRKQ7090). The Scintillation Proximity (SPA) Assay is based on the detection of the different affinities of the cyclic 3′-5′adenosine monophosphate (cAMP, low affinity) and the linear 5′-adenosine monophosphate (AMP, high affinity) to yttrium-silicate-scintillator beads. The cAMP-specific phosphodiesterase (PDE) PDE4B cleaves the 3′-phosphodiester bond of the tritium-labelled-[^3H]cAMP to the [^3H]5′-AMP. This [^3H]5′-AMP associates with the scintillator beads because of their higher affinity and causes scintillations (light flashes) which can be measured in a Wallac Microbeta Scintillation Counter.
10 μl of a [^3H]cAMP-solution (0.05 μCi in H2O, 10-30 Ci/mmol) are added to 89 μl of a PDE4B-enzyme-solution (active site fragment comprising the amino acids 152-484; 0.15-0.18 ng) in assay buffer (50 mM Tris HCl pH 7.5; 8.3 mM MgCl2; 1,7 mM ethylene glyclol tetraacetic acid (EGTA); 0.25 mg/ml bovine serum albumin (BSA)) and this mixture is incubated at 30° C. for one hour
a) without the compound to be tested (in the presence of 1 μl dimethylsulfoxide (DMSO), corresponding to 1% DMSO) and b) in the presence of the compound to be tested in a concentration of 125 μM, 25 μM, 5 μM, 1 μM, 200 nM, 40 nM, 8 nM, 1.6 nM, 0.32 nM, 0.064 nM, 0.0128 nM (dilution series in 5er-steps beginning from 125 μM until 0.0128 nM, in the presence of 1% DMSO).
After this incubation the reaction is stopped by the addition of 50 μl of bead-solution (500 mg beads/35 ml H2O, 18 mM zinc sulfate). In the following 45 minutes the beads have the opportunity to form a sediment. After that the scintillations are measured in the scintillation counter. If the tested compound is able to inhibit the enzymatic activity of the PDE4B-enzyme, less [^3H]AMP depending on the concentration of the tested compound is produced and less scintillations are measurable. […] The IC50-value stands for the compound concentration at which the PDE4B enzyme activity is inhibited to a half maximal value. Therefore the lower the IC50-value is the better is the PDE4B inhibition.
(SPA uses beads or plates that emit light when radiolabelled molecules are held near them.)
T1 sequence (Q07343 324-656): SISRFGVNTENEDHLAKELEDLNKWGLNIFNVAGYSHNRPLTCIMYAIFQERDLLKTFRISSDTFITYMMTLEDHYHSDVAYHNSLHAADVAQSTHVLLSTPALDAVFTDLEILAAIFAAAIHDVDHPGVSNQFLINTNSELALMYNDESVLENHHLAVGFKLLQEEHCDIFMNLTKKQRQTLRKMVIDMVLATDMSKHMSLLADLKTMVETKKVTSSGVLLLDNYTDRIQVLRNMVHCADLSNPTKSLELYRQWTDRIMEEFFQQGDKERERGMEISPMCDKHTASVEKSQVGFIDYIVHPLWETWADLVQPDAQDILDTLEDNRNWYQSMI
In the case of `COCC(=O)NCC1(c2ccccc2)CCN(c2nc3c(c(NC4CCOCC4)n2)[S+]([O-])CC3)CC1` (stereo not shown) [Example 1.31, 2-methoxy-N-{1-[5-oxo-4-(tetrahydropyran-4-ylamino)-6,7-dihydro-5H-5λ^4-thieno[3,2-d]pyrimidin-2-yl]-4-phenylpiperidin-4-ylmethyl}-acetamide], the IC50 (as a rule, the concentration that gives 50% inhibition) was 5.7 nM.

Take `[O-][S+]1CCc2nc(N3CCC(c4nc5c(o4)CCCC5)CC3)nc(NC3CCOCC3)c21` (stereo not shown) [Example 1.44]: the IC50 was 2.7 nM. Then `[O-][S+]1CCc2nc(N3CCC(c4cc(-c5ccco5)n[nH]4)CC3)nc(NC3CCOCC3)c21` (stereo not shown) [Example 1.19, {2-[4-(5-furan-2-yl-2H-pyrazol-3-yl)-piperidin-1-yl]-5-oxo-6,7-dihydro-5H-5λ^4-thieno[3,2-d]pyrimidin-4-yl}-(tetrahydropyran-4-yl)-amine], with 3.46 nM. For `[O-][S+]1CCc2nc(N3CCC(CO)(c4ccc(Cl)cc4)CC3)nc(NC3CCOCC3)c21` (stereo not shown) [Example 1.39, {4-(4-chlorophenyl)-1-[5-oxo-4-(tetrahydropyran-4-ylamino)-6,7-dihydro-5H-5λ^4-thieno[3,2-d]pyrimidin-2-yl]-piperidin-4-yl}-methanol] the value was 1.8 nM. For `[O-][S+]1CCc2nc(N3CCC(c4noc5ccc(F)cc45)CC3)nc(NC3(CO)CC3)c21` (stereo not shown) [Example 1.18, (1-{2-[4-(5-fluorobenzo[d]isoxazol-3-yl)-piperidin-1-yl]-5-oxo-6,7-dihydro-5H-5λ^4-thieno[3,2-d]pyrimidin-4-ylamino}-cyclopropyl)-methanol] the value was 1.89 nM. Turning to `[O-][S+]1CCc2nc(N3CCC(c4ccc(Cl)cc4)CC3)nc(NC3(CO)CC3)c21` (stereo not shown) [Example 1.2, (1-{2-[4-(4-chlorophenyl)-piperidin-1-yl]-5-oxo-6,7-dihydro-5H-5λ^4-thieno[3,2-d]pyrimidin-4-ylamino}-cyclopropyl)-methanol], the IC50 was 3.4 nM. Then `CCc1[nH]c2ccc(F)cc2c1C1CCN(c2nc3c(c(NC4(CO)CC4)n2)[S+]([O-])CC3)CC1` (stereo not shown) [Example 1.9, (1-{2-[4-(2-ethyl-5-fluoro-1H-indol-3-yl)-piperidin-1-yl]-5-oxo-6,7-dihydro-5H-5λ^4-thieno[3,2-d]pyrimidin-4-ylamino}-cyclopropyl)-methanol], with 53.8 nM. For `CN1C(=O)Nc2ccccc2C12CCN(c1nc3c(c(NC4(CO)CC4)n1)[S+]([O-])CC3)CC2` (stereo not shown) [Example 1.7, 1-(4-(1-hydroxymethylcyclopropylamino)-5-oxo-6,7-dihydro-5H-5λ^4-thieno[3,2-d]pyrimidin-2-yl)-3′-methyl-1′H-spiro[piperidin-4,4′-quinazolin]-2′(3′H)-one], the IC50 is over 10000 nM. Take `Cn1nc(-c2ccco2)cc1C1CCN(c2nc3c(c(NC4CCOCC4)n2)[S+]([O-])CC3)CC1` (stereo not shown) [Example 1.29, {2-[4-(5-furan-2-yl-2-methyl-2H-pyrazol-3-yl)-piperidin-1-yl]-5-oxo-6,7-dihydro-5H-5λ^4-thieno[3,2-d]pyrimidin-4-yl}-(tetrahydropyran-4-yl)-amine]: the IC50 stood at 1.7 nM. For `CN1C[C@@H](Nc2nc(N3CCC(c4nc5ccccc5o4)CC3)nc3c2[S+]([O-])CC3)CCC1=O` (stereo partly drawn) [Example 1.16, (S)-5-[2-(4-benzoxazol-2-yl-piperidin-1-yl)-5-oxo-6,7-dihydro-5H-5λ^4-thieno[3,2-d]pyrimidin-4-ylamino]-1-methylpiperidin-2-one] the value was 0.1 nM; for `O=C(O)c1ccc(OC2CCN(c3nc4c(c(NC5CCOCC5)n3)[S+]([O-])CC4)CC2)cc1` (stereo not shown) [Example 1.24, 4-{1-[5-oxo-4-(tetrahydropyran-4-ylamino)-6,7-dihydro-5H-5λ^4-thieno[3,2-d]pyrimidin-2-yl]-piperidin-4-yloxy}-benzoic acid], 7 nM; for `[O-][S+]1CCc2nc(N3CCC(c4ccc(Cl)cc4)CC3)nc(NC3(CO)CCC3)c21` (stereo not shown) [Example 1.47, (1-{2-[4-(4-Chloro-phenyl)-piperidin-1-yl]-5-oxo-6,7-dihydro-5H-5λ^4-thieno[3.2-d]pyrimidin-4-yl-amino}-cyclobutyl)-methanol], 4.3 nM. Then `Cn1nc(C2CCN(c3nc4c(c(NC5CCOCC5)n3)[S+]([O-])CC4)CC2)cc1-c1ccco1` (stereo not shown) [Example 1.27], with 21 nM; and `N#Cc1ccc(OC2CCN(c3nc4c(c(NC5(CO)CC5)n3)[S+]([O-])CC4)CC2)cc1` (stereo not shown) [Example 1.43, 4-{1-[4-(1-hydroxymethylcyclopropylamino)-5-oxo-6,7-dihydro-5H-5λ^4-thieno[3,2-d]pyrimidin-2-yl]-piperidin-4-yloxy}-benzonitrile], with 3.5 nM. Then `CCC[C@H](CO)Nc1nc(N2CCC(c3ccc(Cl)cc3)CC2)nc2c1[S+]([O-])CC2` (stereo partly drawn) [Example 1.3, (R)-2-{2-[4-(4-chlorophenyl)-piperidin-1-yl]-5-oxo-6,7-dihydro-5H-5λ^4-thieno[3,2-d]pyrimidin-4-ylamino}-pentan-1-ol], with 8.3 nM; and `[O-][S+]1CCc2nc(N3CCC(c4nc(-c5ccncc5)no4)CC3)nc(Nc3cccc(F)c3)c21` (stereo not shown) [Example 1.20, (3-fluorophenyl)-{5-oxo-2-[4-(3-pyridin-4-yl-[1,2,4]oxadiazol-5-yl)-piperidin-1-yl]-6,7-dihydro-5H-5λ^4-thieno[3,2-d]pyrimidin-4-yl}-amine], with 2.7 nM; and `Cn1c(C2CCN(c3nc4c(c(NC5CCOCC5)n3)[S+]([O-])CC4)CC2)nc2cnccc21` (stereo not shown) [Example 1.30, {2-[4-(1-methyl-1H-imidazo[4,5-c]pyridin-2-yl)-piperidin-1-yl]-5-oxo-6,7-dihydro-5H-5λ^4-thieno[3,2-d]pyrimidin-4-yl}-(tetrahydropyran-4-yl)-amine], with 33.4 nM. In the case of `CC(C)(O)[C@H](Nc1nc(N2CCC(c3ccc(Cl)cc3)CC2)nc2c1[S+]([O-])CC2)c1ccc(F)cc1` (stereo partly drawn) [Example 1.4, (R)-1-{2-[4-(4-chlorophenyl)-piperidin-1-yl]-5-oxo-6,7-dihydro-5H-5λ^4-thieno[3,2-d]pyrimidin-4-ylamino}-1-(4-fluorophenyl)-2-methylpropan-2-ol], the IC50 is 15.3 nM. For `[O-][S+]1CCc2nc(N3CCC(O)(c4ccc(Cl)cc4)CC3)nc(NC3CCOCC3)c21` (stereo not shown) [Example 1.41, 4-(4-chlorophenyl)-1-[5-oxo-4-(tetrahydropyran-4-ylamino)-6,7-dihydro-5H-5λ^4-thieno[3,2-d]pyrimidin-2-yl]-piperidin-4-ol] the value was 6.7 nM; for `CCc1[nH]c2ccc(F)cc2c1C1CCN(c2nc3c(c(Nc4cccc(F)c4)n2)[S+]([O-])CC3)CC1` (stereo not shown) [Example 1.13, {2-[4-(2-ethyl-5-fluoro-1H-indol-3-yl)-piperidin-1-yl]-5-oxo-6,7-dihydro-5H-5λ^4-thieno[3,2-d]pyrimidin-4-yl}-(3-fluorophenyl)-amine], over 10000 nM; for `CC(C)[C@H](CO)Nc1nc(N2CCC(c3nc(-c4ccncc4)no3)CC2)nc2c1[S+]([O-])CC2` (stereo partly drawn) [Example 1.21, (R)-3-methyl-2-{5-oxo-2-[4-(3-pyridin-4-yl-[1,2,4]oxadiazol-5-yl)-piperidin-1-yl]-6,7-dihydro-5H-5λ^4-thieno[3,2-d]pyrimidin-4-ylamino}-butan-1-ol], over 10000 nM. As for `[O-][S+]1CCc2nc(N3CCC(c4noc5cc(F)ccc45)CC3)nc(NC3(CO)CC3)c21` (stereo not shown) [Example 1.17, (1-{2-[4-(6-fluorobenzo[d]isoxazol-3-yl)-piperidin-1-yl]-5-oxo-6,7-dihydro-5H-5λ^4-thieno[3,2-d]pyrimidin-4-ylamino}-cyclopropyl)-methanol], the concentration for half-maximal inhibition (IC50) was determined as 2.73 nM.

Source of the values: US20140228286A1, “SPECIFIC PDE4B-INHIBITORS FOR THE TREATMENT OF DIABETES MELLITUS” (BOEHRINGER INGELHEIM INTERNATIONAL GMBH, priority 2013, published 2014).
